Experimental data published in ChEMBL document CHEMBL2062419, “Synthesis and antiviral activities of hexadecyloxypropyl prodrugs of acyclic nucleoside phosphonates containing guanine or hypoxanthine and a (S)-HPMP or PEE acyclic moiety” (Eur J Med Chem, 2012).
pEC50: −log10 of the molar value. Calls of active or inactive are those of the source. The calls are words filed in the database; no cut-off is given here.

Tests used:
Human alphaherpesvirus 1 [1] = test: Antiviral activity against HSV1 KOS infected in HEL cells by viral CPE assay; type: functional, organism-based; conditions: Human alphaherpesvirus 1, KOS
Human alphaherpesvirus 1 [2] = test: Antiviral activity against thymidine kinase negative and ACV resistant HSV1 KOS infected in HEL cells by viral CPE assay; type: functional, organism-based; conditions: Human alphaherpesvirus 1, KOS
[3] = test system: Human immunodeficiency virus 1; test: Antiviral activity against HIV1 3B infected in human CEM cells assessed as reduction in virus-induced CEM giant cell formation incubated for 4 days at 37 degC by microscopy; type: functional, organism-based; conditions: CCRF-CEM
[4] = Selectivity index, ratio of cytotoxic CC50 for HEL cells to EC50 for Vaccinia virus Lederie; type: toxicity, cell-based; conditions: human, read-out: Ratio CC50/EC50
Human alphaherpesvirus 3 [5] = test: Antiviral activity against thymidine kinase positive VZV YS infected in HEL cells by plaque formation assay; type: functional, organism-based; conditions: Human alphaherpesvirus 3, YS
Human alphaherpesvirus 2 = test: Antiviral activity against HSV2 G infected in HEL cells by viral CPE assay; type: functional, organism-based; conditions: Human alphaherpesvirus 2, strain G
[6] = Selectivity index, ratio of cytotoxic CC50 for HEL cells to EC50 for VZV Oka
Human alphaherpesvirus 3 [7] = test: Antiviral activity against thymidine kinase negative VZV YS/R infected in HEL cells by plaque formation assay; type: functional, organism-based; conditions: Human alphaherpesvirus 3, YS/R
Human alphaherpesvirus 3 [8] = test: Antiviral activity against thymidine kinase negative VZV 07/01 infected in HEL cells by plaque formation assay; type: functional, organism-based; conditions: Human alphaherpesvirus 3, 07/01, HEL
Coxsackievirus B4 = test: Antiviral activity against Human coxsackievirus B4 by viral CPE assay; type: functional, organism-based
[9] = test system: Respiratory syncytial virus; test: Antiviral activity against Respiratory syncytial virus Long by viral CPE assay; type: functional, organism-based
[10] = test system: Human immunodeficiency virus 2; test: Antiviral activity against HIV2 ROD infected in human CEM cells assessed as reduction in virus-induced CEM giant cell formation incubated for 4 days at 37 degC by microscopy; type: functional, organism-based; conditions: ISOLATE ROD, CCRF-CEM
[11] = Selectivity index, ratio of cytotoxic CC50 for HEL cells to EC50 for HCMV Davis
[12] = test system: Vesicular stomatitis virus; test: Antiviral activity against VSV by viral CPE assay; type: functional, organism-based
HEL = test: Cytotoxicity against HEL cells assessed as effect on cell growth incubated for 3 days by Coulter counter assay; type: cell-based; conditions: human, 72 h
Human alphaherpesvirus 3 [13] = test: Antiviral activity against thymidine kinase positive VZV OKa infected in HEL cells by plaque formation assay; type: functional, cell-based, Human herpesvirus 3 strain Oka vaccine; conditions: Human alphaherpesvirus 3, OKa
[14] = Selectivity index, ratio of cytotoxic CC50 for HEL cells to EC50 for ACV resistant HSV1 KOS
[15] = Selectivity index, ratio of cytotoxic CC50 for HEL cells to EC50 for VZV 07/01
Human respirovirus 3 = test: Antiviral activity against Human parainfluenza virus 3 by viral CPE assay; type: functional, organism-based
[16] = test system: Mammalian orthoreovirus 1; test: Antiviral activity against Reovirus 1 by viral CPE assay; type: functional, organism-based
Human betaherpesvirus 5 [17] = test: Antiviral activity against HCMV Davis infected in HEL cells by viral CPE assay; type: functional, organism-based; conditions: Human betaherpesvirus 5, Davis
[18] = Selectivity index, ratio of cytotoxic CC50 for HEL cells to EC50 for VZV YS
[19] = Selectivity index, ratio of cytotoxic CC50 for HEL cells to EC50 for HSV2 G
[20] = Selectivity index, ratio of cytotoxic CC50 for HEL cells to EC50 for HSV1 KOS
[21] = Selectivity index, ratio of cytotoxic CC50 for HEL cells to EC50 for VZV YS/R
Human betaherpesvirus 5 [22] = test: Antiviral activity against HCMV AD169 infected in HEL cells by viral CPE assay; type: functional, organism-based; conditions: Human betaherpesvirus 5, AD169, HEL
Punta Toro virus = test: Antiviral activity against Punta Toro virus by viral CPE assay; type: functional, organism-based
Vaccinia virus = test: Antiviral activity against Vaccinia virus Lederie infected in HEL cells by viral CPE assay; type: functional, organism-based; conditions: Orthopoxvirus vaccinia
Felid alphaherpesvirus 1 = test: Antiviral activity against Feline herpesvirus infected in CRFK cells by viral CPE assay; type: functional, organism-based; conditions: Felid alphaherpesvirus 1, CRFK
[23] = Cytotoxicity against HEL cells assessed as effect on cell morphology incubated for 3 days by microscopy; type: cell-based; conditions: human
Sindbis virus = test: Antiviral activity against Sindbis virus by viral CPE assay; type: functional, organism-based
[24] = Selectivity index, ratio of cytotoxic CC50 for HEL cells to EC50 for HCMV AD169
[25] = Selectivity index, ratio of cytotoxic CC50 for HEL cells to EC50 for Feline herpesvirus; type: toxicity, cell-based; conditions: human, read-out: Ratio CC50/EC50

Row | Structure (SMILES) | pEC50 (Human alphaherpesvirus 1 [1]) | pEC50 (Human alphaherpesvirus 1 [2]) | Activity [3] | selectivity ratio [4] | pEC50 (Human alphaherpesvirus 2) | Ratio CC50/EC50 [6] | pEC50 (Human alphaherpesvirus 3 [8]) | Ratio CC50/EC50 [11] | CC50 (HEL) [µM] | pEC50 (Human alphaherpesvirus 3 [13]) | Ratio CC50/EC50 [14] | Ratio CC50/EC50 [15] | pEC50 (Human betaherpesvirus 5 [17]) | Ratio CC50/EC50 [19] | Ratio CC50/EC50 [20] | pEC50 (Human betaherpesvirus 5 [22]) | pEC50 (Vaccinia virus) | pEC50 (Felid alphaherpesvirus 1) | MCC at 72 h [23] [µM] | Ratio CC50/EC50 [24] | other results
1 | CCCCCCCCCCCCCCCCOCCCOP(=O)(CO[C@H](CO)Cn1cnc2c(=O)[nH]c(N)nc21)OCCCOCCCCCCCCCCCCCCCC | 4.92 | 4.52 | inactive | > 2.5 | 4.63 | >29 | 5.85 | >11 | > 113 | 5.41 | >4 | >81 | 5.00 | >5 | >9 | 4.92 | 4.35 | < 3.95 | ≥ 22.6 | >9 | pEC50 (Human alphaherpesvirus 3 [5]): 5.92; pEC50 (Human alphaherpesvirus 3 [7]): 5.70; Activity (Coxsackievirus B4): inactive; Activity [9]: inactive; Activity [10]: inactive; Activity [12]: inactive; Activity (Human respirovirus 3): inactive; Activity [16]: inactive; Ratio CC50/EC50 [18]: >94; Ratio CC50/EC50 [21]: >57; Activity (Punta Toro virus): inactive; Activity (Sindbis virus): inactive
2 | CCCCCCCCCCCCCCCCOCCCOP1(=O)CO[C@@H](Cn2cnc3c(=O)[nH]c(N)nc32)CO1 (mixture of isomers) | 7.47 | 7.05 | inactive | 146 | 7.10 | 2700 | 8.30 | 9500 | 19 | 8.15 | 211 | 3800 | 8.70 | 238 | 559 | 8.30 | 6.89 | 6.37 | ≥ 171 | 3800 | pEC50 (Human alphaherpesvirus 3 [5]): 9.00; pEC50 (Human alphaherpesvirus 3 [7]): 8.30; Activity (Coxsackievirus B4): inactive; Activity [9]: inactive; Activity [10]: inactive; Activity [12]: inactive; Activity (Human respirovirus 3): inactive; Activity [16]: inactive; Ratio CC50/EC50 [18]: 19000; Ratio CC50/EC50 [21]: 3800; selectivity ratio [25]: 398; Activity (Punta Toro virus): inactive; Activity (Sindbis virus): inactive
3 | Nc1nc2c(ncn2C[C@H]2COP(=O)(O)CO2)c(=O)[nH]1 | 6.18 | 6.30 | – | 17 | 6.18 | 170 | 6.64 | 11 | 17 | 7.00 | 34 | 74 | 5.80 | 26 | 26 | 5.82 | 6.00 | 6.05 | > 100 | 11 | selectivity ratio [25]: 96
